Assay results published in PubChem BioAssay AID1918991 (Molecular Pharmacology Branch, DTP, NCI, 2023).
pIC50: −log10 of the molar value. “And” between values parts separate entries of the source, which are not always exact repeats. Equal entries are not always repeated. Each block holds one compound with its values, some of them ahead of it.

Test system: 186277-243-T-J2-PDC complex spheroid growth
Assay: Anticancer human tumor 186277-243-T-J2-PDC patient-derived colon adenocarcinoma cell line growth inhibition [AhR]
Details: for viability, T/C: stronger effect = lower value
Source text: Multicellular complex tumor spheroid response to aryl hydrocarbon receptor antagonists in combination with a variety of drugs and investigational agents in selected tumor cell lines
The current study was undertaken to assess response to aryl hydrocarbon receptor antagonists in combination with standard-of-care drugs and investigational agents in solid tumor complex spheroid models. Complex spheroids include a stromal component modeled by human endothelial cells (HUVEC) and fibroblasts modeled by human mesenchymal stem cells (MSCs). The concentration ranges selected for each drug and investigational agent were based upon clinically achievable concentrations if the clinical Cmax of the agent was known.
Compounds. The drugs and investigational agents: BAY 2416964 (NSC825713), GNF351 (NSC835774), CH-223191 (NSC835775), CPI-455 (NSC825282), aza-TdCyd (NSC777586), decitabine (NSC127716), belinostat (NSC758774), entinostat (NSC756642), pevonedistat (NSC761192), tazemetostat (NSC777109), talazoparib (NSC765396), olaparib (NSC753686), selinexor (NSC780203), nedisertib (M3814, NSC802822), bortezomib (NSC756655), venetoclax (NSC766270), doxorubicin (NSC123127), elimusertib (BAY189344, NSC800525), ceralasertib (AZD6738, NSC777638), TAK-243 (NSC785004), alisertib (NSC759677), etoposide (NSC141540), topotecan (NSC609699), eribulin (NSC707389), gemcitabine (NSC613327), carboplatin (NSC241240), cisplatin (NSC119875), and SN-38 (NSC673596) were obtained from the National Cancer Institute (NCI) Developmental Therapeutics Program Chemical Repository (32). The FDA-approved anticancer drug set is available from the Developmental Therapeutics Program at https://dtp.cancer.gov/organization/dscb/obtaining/available plates.htm. […] The stock solutions were prepared in dimethyl sulfoxide (DMSO, Sigma-Aldrich, St. Louis, MO, cat. D2650), except for the platinum compounds which were prepared in saline (Quality Biological, Gaithersburg, MD, cat. 114-055-101), at 800-fold the tested concentration and stored at -70 degrees C prior to their use. All drugs and investigational agents were tested over a range starting from a high concentration at or near the clinical Cmax and decreasing in half-log increments. If the clinical Cmax for an agent had not been determined, the highest concentration tested was 10 microM (Table 1).
Cell Culture. All cells were maintained in an incubator at 37 degrees C and 5% CO2 with 95% humidity. The PDC lines were cultured according to standard operating procedures established by the NCI PDMR (https://pdmr.cancer.gov). Briefly, all PDCs were thawed and cultured in Matrigel-coated flasks prepared with a working solution of 1X Ham's F-12 nutrient mix, without supplementation (Invitrogen, Waltham, MA, cat. 11765054), 100 U/mL penicillin-streptomycin (Invitrogen, cat. 15140122), and 2.5% Matrigel (Corning Inc., Corning, NY, cat. 354248) for the first three passages. All PDCs were cultured in complete DMEM/F-12 media containing advanced DMEM/F-12 (Invitrogen, cat. 12634028), 4.9% defined fetal bovine serum, heat inactivated (HyClone Laboratories Inc., Logan, UT, cat. SH30070.03HI), 389 ng/mL hydrocortisone (Sigma-Aldrich, cat. H4001), 9.7 ng/mL human EGF recombinant protein (Invitrogen, cat. PHG0313), 23.4 microg/mL adenine (Sigma-Aldrich, cat. A2786), 97.3 U/mL penicillin-streptomycin (Invitrogen, cat. 15140122), 1.9 mM L-glutamine (Invitrogen, cat. 25030081), and 9.7 microM Y-27632 dihydrochloride (Tocris Bioscience, Bristol, United Kingdom, cat. 1254). The PDCs were cultured in complete DMEM/F12 media without 10 microM Y-27632 dihydrochloride for at least two passages prior to the screen. The established cell lines NCI-H1341 and […] were cultured in DMEM/F-12, HEPES (Invitrogen, cat. 11330032), 5% defined fetal bovine serum (HyClone Laboratories Inc., cat. SH30070.03), ITS premix universal culture supplement [insulin (5 microg/mL), transferrin (5 microg/mL), and selenious acid (5 ng/mL)] […]
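Also: spheroids exposed to compounds for seven days before the viability read.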
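For viability, T/C in this document: luminescent signal used as a stand-in for viable cell amount; 100% = DMSO vehicle control wells.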

SMILES: CC(C)c1c(-c2ccccc2)nc2c(C#N)c[nH]n2c1=O
- viability, T/C (compound 0.0316 µM): 103% and 105% and 93.4%
- viability, T/C (compound 0.1 µM): 88.8% and 101% and 94.2%
- viability, T/C (compound 0.316 µM): 107% and 95.9% and 94.8%
- viability, T/C (compound 1 µM): 103% and 113% and 97.7%
- viability, T/C (compound 3.16 µM): 96.4% and 107% and 96.9%
- viability, T/C (compound 10 µM): 92% and 105% and 91.7%
- pIC50 (curve of compound): < 5.00

SMILES: CC1(C)CCC(CN2CCN(c3ccc(C(=O)NS(=O)(=O)c4ccc(NCC5CCOCC5)c([N+](=O)[O-])c4)c(Oc4cnc5[nH]ccc5c4)c3)CC2)=C(c2ccc(Cl)cc2)C1
- viability, T/C (compound 0.0316 µM): 97.4% and 103% and 99.8%
- viability, T/C (compound 0.1 µM): 99.3% and 105% and 95.2%
- viability, T/C (compound 0.316 µM): 93.9% and 119% and 92.1%
- viability, T/C (compound 1 µM): 98.4% and 99.1% and 101%
- viability, T/C (compound 3.16 µM): 85.5% and 109% and 84.2%
- pIC50 (curve of compound): < 5.00 and 5.12 and 5.27

SMILES: COc1cc(Nc2ncc3c(n2)-c2ccc(Cl)cc2C(c2c(F)cccc2OC)=NC3)ccc1C(=O)O
- viability, T/C (compound 0.0316 µM): 95.8% and 121% and 27.3%
- viability, T/C (compound 0.1 µM): 83.4% and 121% and 22.3%
- viability, T/C (compound 0.316 µM): 74.4% and 119% and 20.1%
- viability, T/C (compound 1 µM): 69.7% and 114% and 18.9%
- viability, T/C (compound 3.16 µM): 79.1% and 117% and 22.9%
- viability, T/C (compound 10 µM): 81.5% and 123% and 25.9%

SMILES: Cc1cncc(-c2nc(NCCc3c[nH]c4ccccc34)c3ncn(C(C)C)c3n2)c1
- viability, T/C (compound 0.316 µM): 97.7% [middle of 20 runs]

SMILES: NS(=O)(=O)OCC1CC(n2ccc3c(NC4CCc5ccccc54)ncnc32)CC1O (stereo not drawn)
- viability, T/C (compound 0.0316 µM): 89.3% and 94.6% and 101%
- viability, T/C (compound 0.1 µM): 102% (2×) and 88.4%
- viability, T/C (compound 0.316 µM): 89.2% and 88.5% and 60.5%
- viability, T/C (compound 1 µM): 45.8% and 44.2% and 18.4%
- viability, T/C (compound 3.16 µM): 20.8% and 25.7% and 4.9%
- viability, T/C (compound 10 µM): 5.48% and 7.98% and 1.51%
- pIC50 (curve of compound): 6.02 and 6.03 and 6.39

Second part, led by results:

- pIC50 (compound alone, run of 07/12/2022): < 5.00
SMILES: CC(CO)NC(=O)c1cc(-c2ccc(Cl)cc2)nn(-c2cnn(C)c2)c1=O (stereo not drawn)
- viability, T/C (compound 1 µM): 98.3% [middle of 21 runs]
- viability, T/C (compound 10 µM): 85.9% [middle of 19 runs]

- pIC50 (curve of compound): 5.35 and 5.62 and 6.11
SMILES: CC1COCCN1c1cc(C2(S(C)(=N)=O)CC2)nc(-c2ccnc3[nH]ccc23)n1 (stereo not drawn)
- viability, T/C (compound 0.0316 µM): 102% and 98.7% and 97.3%
- viability, T/C (compound 0.1 µM): 98% and 103% and 99%
- viability, T/C (compound 0.316 µM): 99.5% and 92% and 73%
- viability, T/C (compound 1 µM): 106% and 89.6% and 47.1%
- viability, T/C (compound 3.16 µM): 67.5% and 37.4% and 6.44%
- viability, T/C (compound 10 µM): 8.92% and 13.3% and 3.14%

- pIC50 (curve of compound): 5.04 and 5.06 and 5.59
SMILES: COc1ccc([C@@H](O)c2cc(-c3ncnc4cc(N5CCOCC5)ccc34)c(F)cc2Cl)nn1
- viability, T/C (compound 0.0316 µM): 103% and 94.6% and 86.8%
- viability, T/C (compound 0.1 µM): 101% and 91.5% and 90.4%
- viability, T/C (compound 0.316 µM): 115% and 102% and 95%
- viability, T/C (compound 1 µM): 107% and 95.6% and 69.3%
- viability, T/C (compound 3.16 µM): 108% and 87.9% and 46.4%
- viability, T/C (compound 10 µM): 45.4% and 44.9% and 16.3%

- pIC50 (compound alone, run of 07/26/2022): < 5.00
SMILES: Cc1ccccc1N=Nc1ccc(NC(=O)c2ccnn2C)c(C)c1
- viability, T/C (compound 1 µM): 99.2% [middle of 20 runs]
- viability, T/C (compound 3.16 µM): 96% [middle of 20 runs]
- viability, T/C (compound 10 µM): 88.8% [middle of 20 runs]
